Results from patent US20230218714A1, “DIAGNOSTICS AND USE OF QUORUM SENSING MOLECULES IN MUSCLE WASTING” (Universiteit Gent, priority 2019, published 2023).
“And” between values parts separate entries of the source, which are not always exact repeats. Equal entries are not always repeated. “Also recorded” adds a separate entry of the source.

Columns and labels:
[1] = test system: IL-6 production by C2C12 myotubes; assay: IL-6 production by C2C12 myotubes (sandwich ELISA); type: cell-based, mouse; settings: for Effect: inflammation (IL-6 production, hit direction): screening at 1 μM
Description: C2C12 myoblasts (2.5×10^4 cells/well) were seeded in 96-well plates and incubated until they reached 80% confluency, after which the proliferation medium was removed and replaced by differentiation medium. After 6 days of incubation with daily renewed differentiation medium, the cells were treated with 1 μM of QSM, placebo or positive control (LPS) for 24 hours. IL-6 levels were determined in the supernatants using a sandwich ELISA (eBioscience), using IL-6 capture antibody, blocking solution, samples and standards, IL-6 detection antibody, avidin-horseradish peroxidase and substrate solution which were added sequentially, with washing steps in between. After stopping the reaction with H2SO4 solution, the absorbance was measured at 450 nm and 570 nm (correction wavelength) using a microplate reader (ThermoLab Systems). Concentrations were determined using the standard curves generated with known concentrations of IL-6.
Several pro-inflammatory cytokines are elevated in sepsis, cancer, ageing and other catabolic diseases. They are thought to trigger muscle wasting (partly) through NF-kB pathways. […] In these screening experiments, the effects of QSM on myotube IL-6 production were assessed using a sandwich ELISA.
In a further set of experiments, using similar methods as described for the screening experiments, a number of QSPs were tested for a dose response relation in C2C12 cells.

human muscle cells = assay: IL-6 production dose response in human muscle cells; type: cell-based; settings: FIG. 12
Description: Differentiation medium consisted of high glucose Glutamax DMEM supplemented with penicillin (100 units/ml), streptomycin (100 μg/ml) and insulin (10 μg/mL).
Using similar methods as described for the C2C12 experiments, a number of QSPs were tested for a dose response relation in human muscle cells.

C2C12 cells [2] = assay: Co-treatment of C2C12 cells with Q176 and ala-scan derivative, MTT response; type: cell-based, mouse; settings: Q176 50 μM plus derivative 60 μM
Text: (§1) Means±SEM, n=6. * P<0.05; ** P<0.01, *** P<0.001; paired Student's t test.

C2C12 cells [3] = assay: Co-treatment of C2C12 cells with QSP and ala-scan derivative, IL-6 response; type: cell-based, mouse; settings: Q176 50 μM plus derivative 60 μM
Text: as §1

[4] = test system: atrogin, MuRF1, caspase 3 and atg7; assay: Protein degradation gene expression in C2C12 cells (RT-qPCR); type: cell-based, mouse
Description: C2C12 cells were seeded in 6-well (4×10^5 cells/well) or 12-well plates (1.5×10^5 cells/well). […] Thereafter, cells were scraped off from the well surface and resuspended in RLT lysis buffer (Qiagen). RNA was extracted from these lysed cells using RNeasy micro columns (Qiagen). Subsequently, RNA was reverse-transcribed using a mix of oligo-dT and random primers together with Quantiscript reverse transcriptase (Qiagen). DNAse steps were included in the protocol to remove possible DNA contamination. Real-time PCR was performed starting with 7.5 ng cDNA and both sense and antisense oligonucleotides in a final volume of 8 μl in a 384-well plate using the SensiMix SYBR green PCR master mix (Bioline). The following genes were analysed: atrogin, MuRF1, caspase 3 and atg7.
The second derivative method was used to determine the threshold or Cq values, with analysis of Ppia (Peptidylprolyl isomerase A), Rer (Rhodopsin enhancer region) and Hprt (Hypoxanthine-guanine phosphoribosyltransferase) mRNA to normalize gene expression (delta Cq method). […]
To screen the possible effects of 75 QSM on these 3 proteolysis systems, mRNA transcripts of the following representative genes were measured: atrogin and MuRF1 (UPS), caspase 3 (apoptosis system) and autophagy-related protein 7 (autophagy system). […]

[5] = test system: GDF15 production by C2C12 myotubes; assay: GDF15 production by C2C12 myotubes (sandwich ELISA), mitochondrial changes; type: cell-based, mouse; settings: QSM 1 μM, C2C12 myotubes
Description: GDF15 levels were determined in the supernatants of C2C12 cells after QSM, placebo or positive control (oligomyin) treatment, using a sandwich ELISA (R&D Systems). A similar protocol as described for the IL-6 determination was used.
GDF15 is considered a useful biomarker for direct or indirect changes in mitochondrial function. Moreover, GDF15 is implicated in muscle wasting diseases like sarcopenia, chronic obstructive pulmonary disease cachexia and critical illness.

Substance | Relative IL-6 ([1]; concentration 0.20 μM) | Relative IL-6 ([1]; concentration 0.39 μM) | Relative IL-6 ([1]; concentration 1.56 μM) | Relative IL-6 ([1]; concentration 3.13 μM) | Relative IL-6 ([1]; concentration 6.25 μM) | Relative IL-6 ([1]; concentration 12.5 μM) | Relative IL-6 ([1]; concentration 25 μM) | Relative IL-6 ([1]; concentration 50 μM) | Relative IL-6 ([1]; concentration 100 μM) | Effect: inflammation (IL-6 production, hit direction) [1] | dose response relation, IL6 production (human muscle cells) | effect on Q176 mediated MTT effect (C2C12 cells [2]) | effect on Q176 mediated MTT effect (C2C12 cells [2]; listed as QSP176-A13) | effect on Q176 mediated IL-6 induction (C2C12 cells [3]) | effect on Q176 mediated IL-6 induction (C2C12 cells [3]; listed as QSP176-A13) | relative IL-6 production ([1]; QSM 1 μM, 24 h, relative to median of all QSM) [%] | decrease in MuRF1 gene expression compared to placebo ([4]; QSM 1 μM, 24 h, individual screening) | Effect: proteolysis (hit direction) ([4]; screening at 1 μM) | GDF15 secretion, effect relative to median [5] [%]
ESRVSRIILDFLFQRKK [Q055] | 0.94 | 1.07 | 0.93 | 1.24 | 1.24 | 3.60 | 5.56 | 8.94 | 6.48 | increased IL-6 production; also recorded: ↑ inflammation | Typical curves were obtained | – | – | – | – | – | – | – | –
GSLSTFFRLFNASFTQALGK (Synthetic Q176-A13) | – | – | – | – | – | – | – | – | – | – | – | inhibiting the Q176 mediated MTT effect | clearly abolishes both effects | inhibiting the Q176 mediated IL-6 induction | clearly abolishes both effects | – | – | – | –
KSSAYSLQMGATAIKQVKKLFKKWGW [Q125] | 0.89 | 0.90 | 1.28 | 1.96 | 2.08 | 4.89 | 5.55 | 8.23 | 9.80 | increased IL-6 production; also recorded: ↑ inflammation | Typical curves were obtained | – | – | – | – | 171 | – | – | –
NEVPFEF [Q146] | – | – | – | – | – | – | – | – | – | – | – | – | – | – | – | – | ~20% and 20% | ↓ proteolysis | 80
SGSLSTFFRLFNRSFTQALGK [Q176] | 1.00 | 0.89 | 1.53 | 1.61 | 2.39 | 3.24 | 3.49 | 5.81 | 6.01 | increased IL-6 production; also recorded: ↑ inflammation | Typical curves were obtained | – | – | – | – | – | – | – | –
